Test results: patent publication US7638554B2, “Flavanoids as chemotherapeutic, chemopreventive, and antiangiogenic agents” (SRI International, priority 2002, dated 2009)

Tests used:
[1] = system: TIMP-1; test: TIMP-1 protein expression, MCF-10-CA1a cells; type: cell-based, human
Text: (§1) Western Blotting. Proteins were separated by gel electrophoresis using 4-12% pre-cast SDS-polyacrylamide gels (Invitrogen, Carlsbad, Calif.) and then electrophoretically transferred onto Hybond™-P membrane (Amersham Biosciences, Piscataway, N.J.). Blots were probed with specific antibodies (Santa Cruz Biotechnology, Inc). The ECL Plus Western Blotting Detection System of Amersham Biosciences (Piscataway, N.J.) and the procedure recommended by the manufacturer was used for the detection of antigens. Protein bands were quantified by analyzing the images obtained using an Alphaimager™ S-3400 (Alpha Innotech Corp., San Leandro, Calif.).
(§2) The effects of SR 13179 on the protein expression of TIMP-1, TIMP-2, and membrane-type 1 MMP (MT1-MMP) were studied. SR13179 induced the protein expression of TIMP-2 in a dose- and time-dependent manner. MCF-10-CA1a cells were treated with SR 13179 at 1, 3, or 5 μM concentrations for 48 h, or, alternatively, with […] SR 13179 for 8, 24, or 48 h. Cells were lysed and subjected to Western blotting.
The effect of SR13179 on the extracellular levels of TIMP-2 as well as MMP-2 was also investigated. Treatment of MCF-10CA1a cells with SR13179 at 5 μM concentration caused 5- to 8-fold increase in the secreted level of TIMP-2 and a 2-fold decrease in the extracellular level of MMP-2. […]

[2] = system: colon cancer cell line SW-620; test: Growth inhibition, sulforhodamine-based protein determination, SW-620; type: cell-based; conditions: Homo sapiens, SW-620, 144 h; continuous exposure six days
Method: (§3) The novel compound SR 13179 was assayed for its ability to inhibit growth in several cancer cell lines. The cell lines studied included breast cancer cell line MCF-7 (ER+); prostate cancer cell lines LNCaP, PC3, and DU145; lung cancer cell line A427; ovarian cancer cell lines IGROV1, OVCAR-3, OVCAR-4, OVCAR-5, OVCAR-8, and SK-OV-3; and colon cancer cell lines COLO 205, HCC-2998, HCT-116, HCT-15, HT29, KM12, AND SW-620.
(§4) The growth assays for the breast cancer cell lines were conducted according to the method of Example 16. For the other cell lines, each assay was conducted with continuous exposure to the test compound at four log concentrations for six days, using a sulforhodamine-based protein determination to measure growth inhibition.

[3] = system: MMP-9; test: Western blotting of cell-associated MMP-9 protein, MCF-10-CA1a cells; type: cell-based, human; conditions: 1, 3, or 5 μM, 48 h
Text: as §1
The effect of SR 13179 on cell-associated MMP-2 and MMP-9 protein levels was studied. MCF-10-CA1a cells were treated with SR 13179 at 1, 3, or 5 μM concentrations for 48 h. Untreated cells were used as control. Proteins were separated by SDS-Polyacrylamide gel electrophoresis and electrophoretically transformed onto Hybond™ P membrane (Amerhsam Biosciences). Blots were probed with specific antibodies (Santa Cruz Biotechnology Inc.).

[4] = system: ovarian cancer cell line IGROV1; test: Growth inhibition, sulforhodamine-based protein determination, IGROV1; type: cell-based; conditions: Homo sapiens, IGROV-1, 144 h; continuous exposure six days
Method: as §3, §4

[5] = system: ovarian cancer cell line SK-OV-3; test: Growth inhibition, sulforhodamine-based protein determination, SK-OV-3; type: cell-based; conditions: Homo sapiens, SK-OV-3, 144 h; continuous exposure six days
Method: as §3, §4

[6] = system: prostate cancer cell line PC-3; test: Growth inhibition, sulforhodamine-based protein determination, PC-3; type: cell-based; conditions: 144 h; continuous exposure six days
Method: as §3, §4

[7] = system: ovarian cancer cell line OVCAR-5; test: Growth inhibition, sulforhodamine-based protein determination, OVCAR-5; type: cell-based; conditions: Homo sapiens, OVCAR-5, 144 h; continuous exposure six days
Method: as §3, §4

[8] = system: colon cancer cell line KM12; test: Growth inhibition, sulforhodamine-based protein determination, KM12; type: cell-based; conditions: Homo sapiens, KM12, 144 h; continuous exposure six days
Method: as §3, §4

[9] = system: colon cancer cell line HT29; test: Growth inhibition, sulforhodamine-based protein determination, HT29; type: cell-based; conditions: Homo sapiens, HT-29, 144 h; continuous exposure six days
Method: as §3, §4

[10] = system: TIMP-2; test: Western blotting of TIMP-2 protein expression, MCF-10-CA1a cells; type: cell-based, human
Text: as §1, §2

[11] = system: MDA-MB-231 cells; test: Concurrent cytotoxicity assay (MTT), MDA-MB-231; type: cell-based, human; conditions: 5 μM, 22 h
Method: The in vitro invasion through Matrigel was studied for two human breast cancer lines: MCF-10CA1a, a highly metastatic ER^+ line and MDA-MB-231, an ER^− line. […] At this concentration, SR13179 inhibited invasion of MDA-MB-231 by about 30% (and by 70% at 5 μM). To rule out a cytotoxic effect in the inhibition of invasion, a concurrent cytotoxicity assay was carried out and the number of viable cells was determined by MTT assay. There was less than 5% decrease in MDA-MB-231 cell viability at 5 μM concentration of SR13179 at 22 h. In the same experiment, a motility experiment was conducted, showing that cell migration was inhibited by about 20%.

[12] = system: ovarian cancer cell line OVCAR-8; test: Growth inhibition, sulforhodamine-based protein determination, OVCAR-8; type: cell-based; conditions: Homo sapiens, OVCAR-8, 144 h; continuous exposure six days
Method: as §3, §4

COc1cc(C2CC(O)c3ccc4ccccc4c3O2)cc(OC)c1OC (centres unmarked) [SR 13179, 2-(3,4,5-trimethoxyphenyl)-3,4-dihydro-2H-benzo[h]chromen-4-ol]
TIMP-1 protein levels [1]: no significant effect
IC50 [2]: 281 nM
cell-associated MMP-9 protein levels [3]: does not affect
IC50 [4]: 281 nM
IC50 [5]: 529 nM
IC50 [6]: 289 nM
IC50 [7]: 1360 nM
IC50 [8]: 168 nM
IC50 [9]: 430 nM
Level of TIMP-2 Protein ([10]; 1 μM, 48 h): 6.8
Level of TIMP-2 Protein ([10]; 3 μM, 48 h): 14.6
Level of TIMP-2 Protein ([10]; 5 μM, 48 h): 16.2
Level of TIMP-2 Protein ([10]; 8 h, 5 mM SR 13179): 7.9
Level of TIMP-2 Protein ([10]; 24 h, 5 mM SR 13179): 14.5
Level of TIMP-2 Protein ([10]; 48 h, 5 mM SR 13179): 15.9
decrease in cell viability [11]: less than 5%
IC50 [12]: 364 nM
